Measured values: ChEMBL document CHEMBL5291721, “A preclinical secondary pharmacology resource illuminates target-adverse drug reaction associations of marketed drugs” (Nat Commun, 2023)

Key:
[1] = target: T1, Muscarinic acetylcholine receptor M2 (Homo sapiens, UniProt P08172); format: functional, cell-based
T1 sequence (P08172 whole entry): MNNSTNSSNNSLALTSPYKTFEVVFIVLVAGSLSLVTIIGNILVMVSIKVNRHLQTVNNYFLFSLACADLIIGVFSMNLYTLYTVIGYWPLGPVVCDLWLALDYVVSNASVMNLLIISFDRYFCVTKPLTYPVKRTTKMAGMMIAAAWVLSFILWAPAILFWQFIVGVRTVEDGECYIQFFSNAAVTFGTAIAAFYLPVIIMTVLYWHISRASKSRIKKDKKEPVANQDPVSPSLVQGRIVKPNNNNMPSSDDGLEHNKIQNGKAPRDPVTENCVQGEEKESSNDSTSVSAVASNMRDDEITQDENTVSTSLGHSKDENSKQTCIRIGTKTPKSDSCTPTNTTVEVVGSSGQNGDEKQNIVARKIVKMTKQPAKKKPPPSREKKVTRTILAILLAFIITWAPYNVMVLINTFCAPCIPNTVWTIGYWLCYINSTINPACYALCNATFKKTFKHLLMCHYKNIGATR

[2] = target: T2, Equilibrative nucleoside transporter 1 (Homo sapiens, UniProt Q99808)
T2 sequence (Q99808 whole entry): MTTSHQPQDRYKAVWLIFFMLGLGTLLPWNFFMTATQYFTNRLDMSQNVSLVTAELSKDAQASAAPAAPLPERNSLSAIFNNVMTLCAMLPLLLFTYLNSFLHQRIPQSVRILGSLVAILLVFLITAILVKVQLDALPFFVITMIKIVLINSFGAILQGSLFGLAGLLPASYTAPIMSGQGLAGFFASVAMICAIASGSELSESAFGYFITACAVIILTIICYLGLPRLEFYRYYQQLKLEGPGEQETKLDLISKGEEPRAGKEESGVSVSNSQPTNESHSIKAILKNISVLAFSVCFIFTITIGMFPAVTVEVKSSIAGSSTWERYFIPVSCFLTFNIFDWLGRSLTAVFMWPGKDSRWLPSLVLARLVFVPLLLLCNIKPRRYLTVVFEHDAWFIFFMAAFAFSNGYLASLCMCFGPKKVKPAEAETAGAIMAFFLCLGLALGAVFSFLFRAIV

[3] = target: Delta-type opioid receptor (Homo sapiens, UniProt P41143)
Sequence of Delta-type opioid receptor (P41143 whole entry): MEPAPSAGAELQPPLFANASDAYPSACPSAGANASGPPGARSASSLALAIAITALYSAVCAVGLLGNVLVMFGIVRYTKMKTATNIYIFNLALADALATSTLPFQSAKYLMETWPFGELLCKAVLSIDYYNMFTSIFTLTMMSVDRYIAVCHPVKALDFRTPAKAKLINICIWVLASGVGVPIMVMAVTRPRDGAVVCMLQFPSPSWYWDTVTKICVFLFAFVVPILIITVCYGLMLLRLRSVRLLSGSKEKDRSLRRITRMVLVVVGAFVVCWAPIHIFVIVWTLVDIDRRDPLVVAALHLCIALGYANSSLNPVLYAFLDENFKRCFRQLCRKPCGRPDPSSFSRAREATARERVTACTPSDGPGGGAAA

[4] = target: T1, Muscarinic acetylcholine receptor M2; format: functional, cell-based; remark: listed apart in the source
[5] = target: T3, Alpha-2C adrenergic receptor (Homo sapiens, UniProt P18825); format: functional
T3 sequence (P18825 whole entry): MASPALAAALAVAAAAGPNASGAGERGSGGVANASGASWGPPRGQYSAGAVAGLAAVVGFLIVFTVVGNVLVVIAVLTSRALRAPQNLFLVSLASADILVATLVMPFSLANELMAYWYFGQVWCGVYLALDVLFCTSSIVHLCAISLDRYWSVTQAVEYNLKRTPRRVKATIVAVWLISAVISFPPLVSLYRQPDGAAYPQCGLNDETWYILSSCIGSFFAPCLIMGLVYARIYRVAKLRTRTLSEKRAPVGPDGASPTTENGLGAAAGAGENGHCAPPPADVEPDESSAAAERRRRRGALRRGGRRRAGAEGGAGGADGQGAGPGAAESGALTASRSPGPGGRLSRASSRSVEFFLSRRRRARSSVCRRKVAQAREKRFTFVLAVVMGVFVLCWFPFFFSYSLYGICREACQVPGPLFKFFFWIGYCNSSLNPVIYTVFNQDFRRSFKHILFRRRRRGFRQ

Adenosine receptor A1 = target: T4, Adenosine receptor A1 (Homo sapiens, UniProt P30542)
T4 sequence (P30542 whole entry): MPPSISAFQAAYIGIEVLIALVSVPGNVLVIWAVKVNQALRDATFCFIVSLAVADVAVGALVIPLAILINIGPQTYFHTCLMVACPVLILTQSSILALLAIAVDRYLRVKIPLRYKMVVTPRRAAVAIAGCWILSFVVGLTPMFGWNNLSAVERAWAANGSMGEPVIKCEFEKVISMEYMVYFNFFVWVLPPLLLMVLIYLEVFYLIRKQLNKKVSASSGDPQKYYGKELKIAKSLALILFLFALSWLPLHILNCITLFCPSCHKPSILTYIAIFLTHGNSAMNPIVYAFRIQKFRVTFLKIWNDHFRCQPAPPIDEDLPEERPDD

[6] = target: Growth hormone secretagogue receptor type 1 (Homo sapiens, UniProt Q92847)
Sequence of Growth hormone secretagogue receptor type 1 (Q92847 whole entry): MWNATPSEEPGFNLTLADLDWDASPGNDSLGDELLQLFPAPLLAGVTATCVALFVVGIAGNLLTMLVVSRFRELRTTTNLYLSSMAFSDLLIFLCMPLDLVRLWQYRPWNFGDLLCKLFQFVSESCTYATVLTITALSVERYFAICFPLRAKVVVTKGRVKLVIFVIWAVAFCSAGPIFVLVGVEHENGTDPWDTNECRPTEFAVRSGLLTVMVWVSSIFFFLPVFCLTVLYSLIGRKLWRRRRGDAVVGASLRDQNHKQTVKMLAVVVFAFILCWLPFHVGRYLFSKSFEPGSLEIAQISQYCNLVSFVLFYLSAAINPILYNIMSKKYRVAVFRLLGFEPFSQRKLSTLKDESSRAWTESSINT

[7] = target: cGMP-inhibited 3',5'-cyclic phosphodiesterase 3A (Homo sapiens, UniProt Q14432); format: functional
Sequence of cGMP-inhibited 3',5'-cyclic phosphodiesterase 3A (Q14432 whole entry): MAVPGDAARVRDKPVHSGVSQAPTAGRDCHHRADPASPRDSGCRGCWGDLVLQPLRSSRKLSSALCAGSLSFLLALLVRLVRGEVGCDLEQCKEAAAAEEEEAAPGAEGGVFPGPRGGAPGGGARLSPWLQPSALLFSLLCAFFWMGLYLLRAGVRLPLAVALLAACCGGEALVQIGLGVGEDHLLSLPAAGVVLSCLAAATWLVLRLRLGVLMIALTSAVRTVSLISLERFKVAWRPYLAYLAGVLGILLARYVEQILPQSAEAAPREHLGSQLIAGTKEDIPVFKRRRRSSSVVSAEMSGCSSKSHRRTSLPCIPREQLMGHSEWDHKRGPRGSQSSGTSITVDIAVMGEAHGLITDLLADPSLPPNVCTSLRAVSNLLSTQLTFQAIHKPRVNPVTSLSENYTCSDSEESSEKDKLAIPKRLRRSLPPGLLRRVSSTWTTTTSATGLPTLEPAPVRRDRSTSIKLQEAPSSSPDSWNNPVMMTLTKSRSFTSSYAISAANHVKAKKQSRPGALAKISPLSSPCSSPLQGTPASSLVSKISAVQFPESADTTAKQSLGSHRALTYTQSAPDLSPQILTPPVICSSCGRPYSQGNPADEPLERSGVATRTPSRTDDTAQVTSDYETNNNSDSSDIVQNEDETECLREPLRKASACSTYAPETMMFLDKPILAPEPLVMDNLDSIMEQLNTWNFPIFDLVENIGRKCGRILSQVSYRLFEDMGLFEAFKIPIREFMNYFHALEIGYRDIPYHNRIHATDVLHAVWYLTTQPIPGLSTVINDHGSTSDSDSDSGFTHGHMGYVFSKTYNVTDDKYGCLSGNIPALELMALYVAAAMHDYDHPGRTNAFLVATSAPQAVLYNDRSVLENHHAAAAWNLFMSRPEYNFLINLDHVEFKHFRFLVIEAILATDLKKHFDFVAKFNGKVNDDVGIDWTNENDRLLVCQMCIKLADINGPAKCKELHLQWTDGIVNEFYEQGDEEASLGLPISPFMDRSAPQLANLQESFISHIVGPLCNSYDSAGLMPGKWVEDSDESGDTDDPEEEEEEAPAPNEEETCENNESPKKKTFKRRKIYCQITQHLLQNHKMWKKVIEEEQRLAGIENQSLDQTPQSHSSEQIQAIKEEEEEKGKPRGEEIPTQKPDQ

Melanocortin receptor 3 = Melanocortin receptor 3 (Homo sapiens, UniProt P41968)
Sequence of Melanocortin receptor 3 (P41968 whole entry): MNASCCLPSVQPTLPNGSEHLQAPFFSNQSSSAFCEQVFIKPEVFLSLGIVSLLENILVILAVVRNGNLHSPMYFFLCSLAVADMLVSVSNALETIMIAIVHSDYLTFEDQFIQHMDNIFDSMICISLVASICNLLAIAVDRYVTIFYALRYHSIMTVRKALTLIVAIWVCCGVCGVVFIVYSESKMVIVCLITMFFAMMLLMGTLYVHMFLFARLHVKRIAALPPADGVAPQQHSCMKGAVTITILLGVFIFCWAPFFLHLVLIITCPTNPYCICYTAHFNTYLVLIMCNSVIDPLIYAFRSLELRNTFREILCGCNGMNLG

[8] = target: T5, Cholecystokinin receptor type A (Homo sapiens, UniProt P32238)
T5 sequence (P32238 whole entry): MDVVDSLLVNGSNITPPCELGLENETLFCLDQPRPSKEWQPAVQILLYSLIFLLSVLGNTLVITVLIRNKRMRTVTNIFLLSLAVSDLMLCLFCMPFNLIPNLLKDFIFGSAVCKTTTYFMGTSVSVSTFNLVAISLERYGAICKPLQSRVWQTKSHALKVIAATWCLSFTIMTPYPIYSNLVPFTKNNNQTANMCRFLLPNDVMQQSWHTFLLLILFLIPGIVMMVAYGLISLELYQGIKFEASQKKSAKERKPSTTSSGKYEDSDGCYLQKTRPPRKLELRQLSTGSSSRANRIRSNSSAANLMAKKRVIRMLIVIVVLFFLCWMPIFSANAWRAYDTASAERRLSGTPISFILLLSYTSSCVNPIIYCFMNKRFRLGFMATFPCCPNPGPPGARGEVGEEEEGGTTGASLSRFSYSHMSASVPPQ

[9] = target: T6, Type-1 angiotensin II receptor (Homo sapiens, UniProt P30556)
T6 sequence (P30556 whole entry): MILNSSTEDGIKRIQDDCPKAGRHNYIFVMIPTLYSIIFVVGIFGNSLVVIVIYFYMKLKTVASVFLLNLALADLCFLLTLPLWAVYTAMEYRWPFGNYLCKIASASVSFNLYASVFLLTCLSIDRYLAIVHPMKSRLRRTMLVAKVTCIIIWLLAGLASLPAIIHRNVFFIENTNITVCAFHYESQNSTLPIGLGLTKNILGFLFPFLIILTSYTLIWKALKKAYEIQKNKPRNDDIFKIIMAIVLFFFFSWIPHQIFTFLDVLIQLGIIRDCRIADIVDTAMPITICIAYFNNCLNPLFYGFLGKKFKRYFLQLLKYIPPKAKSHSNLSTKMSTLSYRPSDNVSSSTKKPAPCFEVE

Adenosine receptor A2a = Adenosine receptor A2a (Homo sapiens, UniProt P29274)
Sequence of Adenosine receptor A2a (P29274 whole entry): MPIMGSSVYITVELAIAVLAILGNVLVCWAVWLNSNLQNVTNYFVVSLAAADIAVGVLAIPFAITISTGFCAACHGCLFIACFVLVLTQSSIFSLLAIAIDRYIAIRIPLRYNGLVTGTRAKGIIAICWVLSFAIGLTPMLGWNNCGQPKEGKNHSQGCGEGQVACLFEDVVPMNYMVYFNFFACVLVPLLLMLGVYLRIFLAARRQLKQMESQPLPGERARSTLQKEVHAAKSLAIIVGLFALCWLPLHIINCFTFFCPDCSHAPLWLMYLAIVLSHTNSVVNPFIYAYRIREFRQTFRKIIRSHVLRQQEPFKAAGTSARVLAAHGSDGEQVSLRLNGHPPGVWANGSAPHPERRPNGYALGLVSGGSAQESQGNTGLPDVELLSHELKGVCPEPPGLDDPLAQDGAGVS
Further: assay procedure not described here.

Compound | AC50 [1] | AC50 [2] | AC50 [3] | AC50 [4] | AC50 [5] | AC50 (Adenosine receptor A1) | AC50 [6] | AC50 [7] | AC50 (Melanocortin receptor 3) | AC50 [8] | AC50 [9] | AC50 (Adenosine receptor A2a)
CCCCN1C[C@H](O)[C@@H](O)[C@H](O)[C@H]1CO | > 30 µM | > 30 µM | > 30 µM | > 30 µM | > 30 µM | > 30 µM | > 30 µM | > 30 µM | > 30 µM | > 30 µM | > 30 µM | > 30 µM
CC(=O)NCCCS(=O)(=O)O [ACAMPROSATE] | > 30 µM | – | > 30 µM | > 30 µM | > 30 µM | > 30 µM | > 30 µM | > 30 µM | > 30 µM | > 30 µM | > 30 µM | > 30 µM
CC(=O)Nc1ccc(O)cc1 [ACETAMINOPHEN] | > 30 µM | > 30 µM | > 30 µM | > 30 µM | > 30 µM | > 30 µM | > 30 µM | > 30 µM | > 30 µM | > 30 µM | > 30 µM | > 30 µM
CCCSc1ccc2nc(NC(=O)OC)[nH]c2c1 [ALBENDAZOLE] | > 10 µM | > 30 µM | > 30 µM | > 10 µM | > 10 µM | > 10 µM | > 10 µM | > 30 µM | > 30 µM | > 10 µM | > 10 µM | > 30 µM
CC(C)C[C@H]1C(=O)N2CCC[C@H]2[C@]2(O)O[C@](NC(=O)[C@@H]3C=C4c5cccc6[nH]c(Br)c(c56)C[C@H]4N(C)C3)(C(C)C)C(=O)N12 [BROMOCRIPTINE] | 28 µM | 13 µM | > 30 µM | > 30 µM | – | > 30 µM | 25 µM | > 30 µM | > 30 µM | > 30 µM | > 30 µM | > 30 µM
O=C(Cc1ccc(-c2ccccc2)cc1)Nc1ccccn1 [DIFENPIRAMIDE] | > 30 µM | – | > 30 µM | > 30 µM | > 30 µM | – | – | > 30 µM | – | – | – | –
C[N+]1(C)CCC(OC(=O)C(O)(c2ccccc2)C2CCCC2)C1 (stereo unspecified) [GLYCOPYRRONIUM BROMIDE] | – | > 30 µM | – | – | – | – | > 30 µM | > 30 µM | > 30 µM | > 30 µM | > 30 µM | –
C1CCC(C(CC2CCCCN2)C2CCCCC2)CC1 (stereo unspecified) [PERHEXILINE] | 4.9 µM | > 30 µM | 23.5 µM | – | 16.5 µM | > 30 µM | 6.2 µM | > 30 µM | 8.28 µM | > 30 µM | > 30 µM | > 30 µM
COc1cc(NC(C)CCCN)c2ncccc2c1 (stereo unspecified) [PRIMAQUINE] | – | – | – | – | – | > 30 µM | > 30 µM | 2.9 µM | > 30 µM | > 30 µM | > 30 µM | > 30 µM
Cc1c(C(=O)NN2CCCCC2)nn(-c2ccc(Cl)cc2Cl)c1-c1ccc(Cl)cc1 [RIMONABANT] | – | 20.1 µM | > 30 µM | – | 13 µM | > 30 µM | 25 µM | 8.4 µM | 15.9 µM | 17 µM | 16.9 µM | > 30 µM

Continued, values first:

AC50 [1] | AC50 [2] | AC50 [3] | AC50 [4] | AC50 [5] | AC50 (Adenosine receptor A1) | AC50 [6] | AC50 [7] | AC50 (Melanocortin receptor 3) | AC50 [8] | AC50 [9] | AC50 (Adenosine receptor A2a) | Compound
> 10 µM | > 30 µM | > 30 µM | 0.25 µM | 9.67 µM | > 30 µM | 22 µM | > 30 µM | 21 µM | > 30 µM | > 30 µM | > 30 µM | CN(C)CCC=C1c2ccccc2C(C)(C)c2ccccc21
> 10 µM | > 30 µM | > 30 µM | > 10 µM | > 10 µM | > 30 µM | > 30 µM | > 30 µM | > 30 µM | > 30 µM | > 30 µM | > 30 µM | CCOC(=O)[C@H](CCc1ccccc1)N[C@@H](C)C(=O)N1[C@H](C(=O)O)C[C@@H]2CCC[C@@H]21
> 30 µM | > 30 µM | > 30 µM | > 30 µM | > 30 µM | > 30 µM | > 30 µM | > 30 µM | > 30 µM | > 30 µM | > 30 µM | > 30 µM | Nc1nc(NC2CC2)c2ncn([C@H]3C=C[C@@H](CO)C3)c2n1 [ABACAVIR]
> 30 µM | > 30 µM | > 30 µM | > 30 µM | 0.81 µM | > 30 µM | > 30 µM | > 30 µM | > 30 µM | > 30 µM | > 30 µM | > 30 µM | COc1cc2nc(N(C)CCCNC(=O)C3CCCO3)nc(N)c2cc1OC (stereo unspecified) [ALFUZOSIN]
– | > 30 µM | > 30 µM | – | > 10 µM | > 30 µM | > 30 µM | > 30 µM | > 30 µM | > 30 µM | > 30 µM | > 30 µM | CC1=C(C(=O)O)N2C(=O)[C@@H](NC(=O)[C@H](N)c3ccccc3)[C@H]2SC1 [CEPHALEXIN ANHYDROUS]
> 30 µM | – | > 30 µM | > 30 µM | > 30 µM | > 30 µM | > 30 µM | > 30 µM | > 30 µM | > 30 µM | > 30 µM | > 30 µM | Cc1nc([N+](=O)[O-])cn1-c1ccc([N+](=O)[O-])cc1 [NITREFAZOLE]
